Source: ChEMBL document CHEMBL1909046, “DrugMatrix in vitro pharmacology data”

Experiments:
[1] = DRUGMATRIX: ATPase, Na+/K+ enzyme inhibition (substrate: ATP); assay type: tissue-based, Sus scrofa, Heart; conditions: Not Active = under 50% inhibition at 10 µM
[2] = molecular target: T1, C-C chemokine receptor type 4 (Homo sapiens, UniProt P51679); assay type: cell membranes, Membrane; conditions: chem-1; further: in other assays of this panel Not Active means under 50% inhibition at 10 µM
T1 sequence (P51679 whole entry): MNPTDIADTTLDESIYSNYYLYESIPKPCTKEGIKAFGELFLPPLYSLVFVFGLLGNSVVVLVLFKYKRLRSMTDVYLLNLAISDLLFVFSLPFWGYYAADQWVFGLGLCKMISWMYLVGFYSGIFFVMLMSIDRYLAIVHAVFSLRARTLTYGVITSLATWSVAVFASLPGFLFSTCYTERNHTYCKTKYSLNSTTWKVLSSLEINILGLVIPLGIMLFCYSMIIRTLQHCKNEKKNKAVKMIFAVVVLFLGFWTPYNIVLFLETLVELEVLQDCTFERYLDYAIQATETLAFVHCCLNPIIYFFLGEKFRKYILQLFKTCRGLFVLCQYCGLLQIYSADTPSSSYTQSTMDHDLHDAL

[3] = molecular target: C-C chemokine receptor type 5 (Homo sapiens, UniProt P51681); assay type: cell membranes, Membrane; conditions: hek293; further: in other assays of this panel Not Active means under 50% inhibition at 10 µM
Sequence of C-C chemokine receptor type 5 (P51681 whole entry): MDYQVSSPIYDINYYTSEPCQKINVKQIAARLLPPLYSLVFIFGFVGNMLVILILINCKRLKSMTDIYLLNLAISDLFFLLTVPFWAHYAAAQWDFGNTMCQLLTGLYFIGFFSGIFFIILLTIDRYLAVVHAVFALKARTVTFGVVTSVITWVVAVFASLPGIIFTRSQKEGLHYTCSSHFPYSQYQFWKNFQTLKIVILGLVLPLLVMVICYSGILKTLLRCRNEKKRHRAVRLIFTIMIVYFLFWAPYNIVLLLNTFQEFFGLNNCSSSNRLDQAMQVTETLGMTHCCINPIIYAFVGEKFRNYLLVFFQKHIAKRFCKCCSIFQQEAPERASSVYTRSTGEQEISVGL

[4] = molecular target: T2, Amine oxidase [flavin-containing] A (Homo sapiens, UniProt P21397); test: DRUGMATRIX: Monoamine Oxidase MAO-A enzyme inhibition (substrate: Kynuramine); set-up: species or system BTI-TN-5B1-4; conditions: bti-tn-5b1-4; Not Active = under 50% inhibition at 10 µM
T2 sequence (P21397 whole entry): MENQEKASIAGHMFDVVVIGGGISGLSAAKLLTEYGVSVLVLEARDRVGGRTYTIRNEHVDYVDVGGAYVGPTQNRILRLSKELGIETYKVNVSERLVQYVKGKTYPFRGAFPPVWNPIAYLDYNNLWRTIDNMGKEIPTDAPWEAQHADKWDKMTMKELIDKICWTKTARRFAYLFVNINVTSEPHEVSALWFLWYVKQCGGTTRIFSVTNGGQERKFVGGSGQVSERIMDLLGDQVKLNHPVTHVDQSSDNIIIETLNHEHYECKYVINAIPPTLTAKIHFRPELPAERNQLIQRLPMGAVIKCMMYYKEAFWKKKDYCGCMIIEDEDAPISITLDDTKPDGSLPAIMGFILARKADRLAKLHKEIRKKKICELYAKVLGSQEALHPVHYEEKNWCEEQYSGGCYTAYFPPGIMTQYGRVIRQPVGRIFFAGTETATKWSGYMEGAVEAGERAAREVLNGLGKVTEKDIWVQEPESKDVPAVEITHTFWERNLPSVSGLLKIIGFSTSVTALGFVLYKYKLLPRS

[5] = molecular target: T3, Neuropeptide Y receptor type 2 (Homo sapiens, UniProt P49146); assay type: cell membranes, KAN-TS, Membrane; conditions: kan-ts; further: in other assays of this panel Not Active means under 50% inhibition at 10 µM
T3 sequence (P49146 whole entry): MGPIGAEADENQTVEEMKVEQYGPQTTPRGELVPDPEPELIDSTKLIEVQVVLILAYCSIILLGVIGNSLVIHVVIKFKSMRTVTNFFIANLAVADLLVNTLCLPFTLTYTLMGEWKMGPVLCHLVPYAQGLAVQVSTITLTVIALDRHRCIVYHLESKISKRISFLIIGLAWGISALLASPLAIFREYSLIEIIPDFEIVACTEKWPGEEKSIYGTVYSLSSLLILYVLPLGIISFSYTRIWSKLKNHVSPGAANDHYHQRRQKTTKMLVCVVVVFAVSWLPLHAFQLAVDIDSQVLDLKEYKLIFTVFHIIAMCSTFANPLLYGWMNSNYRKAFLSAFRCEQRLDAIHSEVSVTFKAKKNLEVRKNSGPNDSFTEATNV

[6] = molecular target: T4, 5-hydroxytryptamine receptor 1A (Rattus norvegicus, UniProt P19327); assay type: cell membranes, CHO-K1, Membrane; conditions: cho-k1; further: in other assays of this panel Not Active means under 50% inhibition at 10 µM
T4 sequence (P19327 whole entry): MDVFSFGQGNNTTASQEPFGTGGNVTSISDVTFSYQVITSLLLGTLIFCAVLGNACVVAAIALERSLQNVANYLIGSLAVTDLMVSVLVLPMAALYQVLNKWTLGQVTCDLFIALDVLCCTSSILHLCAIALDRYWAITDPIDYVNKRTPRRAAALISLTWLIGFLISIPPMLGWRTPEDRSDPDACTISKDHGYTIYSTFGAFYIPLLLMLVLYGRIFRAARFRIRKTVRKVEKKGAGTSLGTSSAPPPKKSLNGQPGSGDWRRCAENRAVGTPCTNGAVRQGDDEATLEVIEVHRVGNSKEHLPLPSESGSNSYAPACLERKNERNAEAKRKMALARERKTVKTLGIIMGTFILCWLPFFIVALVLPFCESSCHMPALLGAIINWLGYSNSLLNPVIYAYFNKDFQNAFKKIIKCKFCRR

Cytochrome P450 1A2 = molecular target: T5, Cytochrome P450 1A2 (Homo sapiens, UniProt P05177); conditions: bti-tn-5b1-4; further: in other assays of this panel Not Active means under 50% inhibition at 10 µM
T5 sequence (P05177 whole entry): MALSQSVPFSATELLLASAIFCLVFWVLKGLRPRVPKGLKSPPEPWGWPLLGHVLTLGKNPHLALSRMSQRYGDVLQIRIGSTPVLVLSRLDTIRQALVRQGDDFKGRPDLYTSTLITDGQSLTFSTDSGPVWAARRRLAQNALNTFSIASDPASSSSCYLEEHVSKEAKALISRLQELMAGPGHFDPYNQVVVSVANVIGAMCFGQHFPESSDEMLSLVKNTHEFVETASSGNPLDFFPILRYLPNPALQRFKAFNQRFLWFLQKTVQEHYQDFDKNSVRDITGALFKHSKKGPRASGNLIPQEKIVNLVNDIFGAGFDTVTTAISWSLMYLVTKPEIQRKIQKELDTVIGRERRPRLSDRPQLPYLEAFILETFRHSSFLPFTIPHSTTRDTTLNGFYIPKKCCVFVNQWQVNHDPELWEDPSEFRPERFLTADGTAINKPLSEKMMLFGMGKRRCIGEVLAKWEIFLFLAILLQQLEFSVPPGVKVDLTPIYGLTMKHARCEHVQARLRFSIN

Nc1ccn([C@@H]2O[C@H](CO)[C@@H](O)C2(F)F)c(=O)n1 [GEMCITABINE]
Not Active: IC50 [1] | Ki [1] | IC50 [2] | IC50 [3] | IC50 [4] | IC50 [5] | IC50 [6] | IC50 (Cytochrome P450 1A2) | Ki (Cytochrome P450 1A2)

N=C(N)NC(=O)Cc1c(Cl)cccc1Cl [GUANFACINE]
Not Active: IC50 [1] | Ki [1] | IC50 [2] | IC50 [3] | IC50 [4] | IC50 [5] | IC50 [6] | IC50 (Cytochrome P450 1A2) | Ki (Cytochrome P450 1A2)

NNc1nncc2ccccc12 [HYDRALAZINE]
Not Active: IC50 [1] | Ki [1] | IC50 [2] | IC50 [3] | IC50 [4] | IC50 [5] | IC50 [6] | IC50 (Cytochrome P450 1A2) | Ki (Cytochrome P450 1A2)

COC1=C(OC)C(=O)C(CCCCCCCCCCO)=C(C)C1=O [IDEBENONE]
Not Active: IC50 [1] | Ki [1] | IC50 [2] | IC50 [3] | IC50 [4] | IC50 [5] | IC50 [6] | IC50 (Cytochrome P450 1A2) | Ki (Cytochrome P450 1A2)

CC(C)NNC(=O)c1ccncc1 [IPRONIAZID]
Not Active: IC50 [1] | Ki [1] | IC50 [2] | IC50 [3] | IC50 [4] | IC50 [5] | IC50 [6] | IC50 (Cytochrome P450 1A2) | Ki (Cytochrome P450 1A2)

Cc1c(OCC(F)(F)F)ccnc1C[S+]([O-])c1nc2ccccc2[nH]1 (stereo unspecified) [LANSOPRAZOLE]
Not Active: IC50 [1] | Ki [1] | IC50 [2] | IC50 [3] | IC50 [4] | IC50 [5] | IC50 [6] | IC50 (Cytochrome P450 1A2) | Ki (Cytochrome P450 1A2)

COc1ccc2[nH]cc(CCNC(C)=O)c2c1 [MELATONIN]
Not Active: IC50 [1] | Ki [1] | IC50 [2] | IC50 [3] | IC50 [4] | IC50 [5] | IC50 [6] | IC50 (Cytochrome P450 1A2) | Ki (Cytochrome P450 1A2)

NC(=O)C[S+]([O-])C(c1ccccc1)c1ccccc1 (stereo unspecified) [MODAFINIL]
Not Active: IC50 [1] | Ki [1] | IC50 [2] | IC50 [3] | IC50 [4] | IC50 [5] | IC50 [6] | IC50 (Cytochrome P450 1A2) | Ki (Cytochrome P450 1A2)

CCN(CC)CCOCCC1=CCC2CC1C2(C)C (stereo unspecified) [MYRTECAINE]
Not Active: IC50 [1] | Ki [1] | IC50 [2] | IC50 [3] | IC50 [4] | IC50 [5] | IC50 [6] | IC50 (Cytochrome P450 1A2) | Ki (Cytochrome P450 1A2)
